Data on two compounds can be found in patent publication US20090163450A1, “COMBINATIONS COMPRISING A PROSTAGLANDIN AND USES THEREOF” (priority 2007, published 2009).

Structures are written as SMILES. Entries after “also recorded” stand apart in the source; their conditions may differ. Read-outs that look alike come from different tables or passages of the source.

For series [1], the system named is human B52 NSCLC cells xenografted to nude mice. To be noted: for effect on tumor growth (tumor area): 1st experiment.
Protocol: (§1) B-52 NSCL tumor pieces obtained from in vivo passage, were implanted s.c. in the inguinal region of female nude mice. Treatment was started when the tumors were approximately 25 mm^2 in size. Tumor area was determined by caliper measurements twice weekly.
B-52 tumor pieces obtained from in vivo passage, were implanted s.c. in the inguinal region of female nude mice. Treatment was started when the tumors were approximately 25 mM2 in size. Tumor area was determined by caliper measurements twice weekly.
(§2) Tumor area was determined by caliper measurements.
In series [2] the test system is human B-52 NSCL cancer model, xenografted in nude mice. Nature of the series: 2nd experiment: B-52 NSCL cancer xenograft in nude mice, epothilone with Iloprost and/or O-acetyl salicylic acid. The conditions noted are these: Iloprost 0.2 mg/kg i.v. days 22-26, O-acetyl salicylic acid 60 mg/kg p.o. days 19-29; for effect on tumor growth (tumor area): 2nd experiment (FIG. 1), epothilone 8 mg/kg i.v. once day 24.
Protocol: as §1
The 2nd Experiment was made to evaluate in a human B-52 NSCL cancer model, xenografted in nude mice the effect of: • Iloprost and O-acetyl salicyclic acid alone, • the combination of Iloprost and epothilone, • the combination of O-acetyl salicyclic acid and epothilone, • the combination of Iloprost and O-acetyl salicyclic acid as well as • the combination of Iloprost, O-acetyl salicyclic acid and epothilone.
The study was designed to determine the response of a lung cancer model to a cytotoxic treatment regime with the epothilone derivative in combination with Iloprost, O-acetyl salicylic acid or the combination thereof.
The tumor-inhibiting effect of, O-acetyl salicylic acid (ASS) and iloprost was investigated in the human B-52 NSCL cancer model, xenografted in nude mice.
B-52 tumor pieces obtained from in vivo passage, were implanted s.c. in the inguinal region of female nude mice. Treatment was started when the tumors were approximately 25 mm^2 in size. Tumor area was determined by caliper measurements twice weekly.
as §2

Take `CC#CCC(C)[C@H](O)/C=C/[C@@H]1[C@H]2C/C(=C/CCCC(=O)O)C[C@H]2C[C@H]1O` (stereo partly drawn) [Iloprost, ((E)-5-{(3aS,4R,5R,6aS)-5-Hydroxy-4-[(E)-(3S,4RS)-3-hydroxy)-4-methyl-1-octen-6-ynyl]perhydropentalen-2-ylidene}valeric acid]: the “effect on tumor growth (tumor area)” value in series [1] (Iloprost 0.2 mg/kg i.v. 1x/day days 27-31, epothilone 7 or 10 mg/kg i.v. 1x day 29) is recorded as “no significant effect on tumor growth”; in series [2], “no effects”. Besides, the effect on bodyweight entry in series [2] (2nd experiment) is “no effect”.

Turning to `C=CC[C@H]1C(=O)C(C)(C)[C@@H](O)CC(=O)O[C@H](c2ccc3sc(C)nc3c2)C[C@@H]2O[C@]2(C)CCC[C@H](C)[C@@H]1O` [epothilone, (1S,3S,7S,10R,11S,12S,16R)-7,11-dihydroxy-3-(2-methyl-benzothiazol-5-yl)-10-(prop-2-en-1-yl)-8,8,12,16-tetramethyl-4,17-dioxabicyclo[14.1.0]heptadecane-5,9-dione], the entries for the “effect on tumor growth (tumor area)” value in series [1] (epothilone at the highest dose of 10 mg/kg i.v. 1x day 29) and in series [2] were “reduced tumor growth” and “slightly reduced tumor growth; also recorded: effective in growth inhibiting”, respectively. In addition, the toxicity result in series [1] (mouse, in vivo, iv, 10 mg/kg) is recorded as “proved to be toxic”.
